Results as given in patent publication US20230348454A1, “COMPOUNDS AS MODULATORS OF BIS-PHOSPHOGLYCERATE MUTASE FOR THE TREATMENT OF SICKLE CELL DISEASE” (Genzyme Corporation, priority 2020, published 2023).
Like-named read-outs stand apart in the source and are kept apart here.

Key:
[1] = molecular target: T1, human Bisphosphoglycerate mutase (hBPGM) (Homo sapiens, UniProt P07738); test: BPGM phosphatase assay; assay type: biochemical
T1 sequence (P07738 1-259): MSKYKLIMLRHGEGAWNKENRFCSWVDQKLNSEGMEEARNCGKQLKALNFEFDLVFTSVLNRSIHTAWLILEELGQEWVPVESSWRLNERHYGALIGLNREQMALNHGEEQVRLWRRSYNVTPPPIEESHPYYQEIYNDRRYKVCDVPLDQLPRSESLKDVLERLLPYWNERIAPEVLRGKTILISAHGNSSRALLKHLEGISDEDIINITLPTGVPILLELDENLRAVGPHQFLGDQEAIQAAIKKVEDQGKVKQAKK
Protocol: The following materials were used in this assay: Tris buffer (50 mM Tris, 0.01% Tween 20, pH 7.4); cyclohexylammonium salt of 2,3-BPG (stock solution of 500 mM in ultapure distilled water; human Bisphosphoglycerate mutase (hBPGM; stock solution of 110 μM in Standard Buffer); 3-Phosphoglyceric acid (3-PG; stock solution of 100 mM in ultrapure distilled water); 384-Well Polystyrene Plates (Fisherbrand™, Catalog No.: 12-566-625); BIOMOL GREEN REAGENT (Enzo life sciences, BML-AK111-0250); and 1 mM DMSO stock of exemplary compounds.
A 3-PG enzyme mix solution (final enzyme concentration 62.5 nM, 3-PG concentration at 50 µM, 14.5 uL) was added to onto a 384-well clear plate. Solutions of the test compounds were then added to the plate and the DMSO content was normalized across the plate. The plate was incubated at RT for 15 min. Next, the substrate 2,3-BPG (5 μL) was added to all the wells, and the plate was sealed and incubated for 24 hr at RT. After incubation, BIOMOL green dye (40 μL) was added to all the wells, the plate was shaken to mix, and the plate was incubated at RT for 20-30 min. Absorbance measurements were recorded at 620 nm.

[2] = molecular target: T2, hBPGM (Homo sapiens, UniProt P07738); test: BPGM synthase assay; assay type: biochemical; conditions: Table 6; read-out: huBPGM: synthase Enzyme IC50
T2 sequence (P07738 1-259): T1 sequence (P07738 1-259)
Protocol: The following materials were used in this assay: deionized water; Bisphosphoglycerate mutase (BPGM; Standard Buffer: 50 mM Tris, 0.01% Tween 20, pH 7.4); BPGM Reaction Buffer (50 mM Tris, 0.01% Tween 20, 3.23 mM KH2PO4, pH 7.4); dithiothreitol (DTT; Stock solution: 100 mM in Standard Buffer); 384-Well Black Assay Plate (Corning, P/N 3575); DMSO; BPGM Stock Solution (500 nM in BPGM Standard Buffer); Glyceraldehyde 3-phosphate dehydrogenase (GAPDH; Stock Solution: 40 U/mL in 20 mM Tris-HCL Buffer with 20% Glycerol, 1 mM EDTA, 1 mM DTT); Glyceraldehyde 3-phosphate (GAP; Stock Solution: 20 mM in BPGM Standard Buffer); 3-PG Stock Solution (500 μM in BPGM Standard Buffer); Nicotinamide adenine dinucleotide (NAD; Stock Solution: 50 mM in BPGM Standard Buffer); Koningic Acid (1 mM Stock in DMSO); Resazurin Stock Solution (10 mM in DMSO); Diaphorase Stock Solution (40 U/mL in BPGM Standard Buffer); DTT Reaction Buffer (1 mM DTT in BPGM Reaction Buffer); Enzyme Solution (5 nM BPGM, 0.4 U/mL GAPDH in DTT Reaction Buffer); GAPDH Solution (0.4 U/mL GAPDH in DTT Reaction Buffer); Substrate Solution (2 mM NAD, 20 μM 3PG, 800 μM GAP in DTT Reaction Buffer); and Resazurin Solution (5 U/mL Diaphorase, 500 μM Resazurin in BPGM Standard Buffer).
To the assay plate was added Enzyme Solution (20 uL) to columns 2-22 and 24 of the assay plate. To columns 1 and 23 was added GAPDH Solution (20 uL). A separate compound plate was prepared at the desired concentrations and all wells were normalized with 5% DMSO. The compound plate was incubated for 30 minutes at RT. Next, the substrate solution (20 μL) was dispensed to all reaction wells and the plate was incubated for 60 minutes at RT. Koningic acid (1 μL) was added and the plate was incubated for 10 minutes at RT. During this time period, the NADH fluorescence was read at ex: 360/em: 460. Next, Resazurin Solution (10 μL) was added to all reaction wells and the plate was incubated for 30 minutes at RT. The resorufin fluorescence was then read at ex:544/em:590.

[3] = Table 6, read-out: huBPGM: phosphatase Enzyme EC50
[4] = Table 4, read-out: hBPGM Phosphatase EC50

| Compound | EC50 [1, 3] | IC50 [2] | EC50 [1, 4] |
| --- | --- | --- | --- |
| COC(=O)NCc1nc(C)c(-c2cccc(-c3cc(F)c(O)c(F)c3F)n2)s1 [Example 171] | 1900 nM | 810 nM | – |
| COC(=O)NCc1nc(C)c(-c2csc(-c3ccc4[nH]nnc4c3F)n2)s1 [Example 166] | 170 nM | 110 nM | – |
| CC(=O)NCc1nc(C)c(-c2csc(-c3cc(F)c(O)c(F)c3F)n2)s1 [Example 96] | 1000 nM | 1600 nM | – |
| Cc1nc(COC(C)C(=O)N(C)C)sc1-c1csc(-c2cc(F)c(O)c(F)c2F)n1 (stereo not drawn) [Example 98] | 380 nM | 2200 nM | – |
| Cc1nc(COc2ccccn2)sc1-c1csc(-c2cc(F)c(O)c(F)c2F)c1 [Example 102] | 45 nM | 620 nM | – |
| COC(=O)NCc1nc(C)c(-c2csc(-c3ccc(O)c(F)c3)n2)s1 [Example 203] | 3600 nM | 6100 nM | – |
| CC(=O)NCc1nc(C)c(-c2csc(-c3cc(F)c4[nH]nnc4c3)n2)s1 [Example 103] | > 25000 nM | 930 nM | – |
| Cc1nc(CNC(=O)C(C)(C)C)sc1-c1csc(-c2cc3nn[nH]c3cc2F)n1 [Example 181] | 790 nM | 300 nM | – |
| COC(=O)NCc1nc(C)c(-c2csc(-c3ccc(O)c(C#N)c3F)n2)s1 [Example 173] | > 25000 nM | 1500 nM | – |
| Cc1cnc(OCc2nc(C)c(-c3cccc(-c4cc(F)c5nn[nH]c5c4F)n3)s2)nc1 [compound 8] | 40 nM | 17 nM | 40 nM |
| Cc1nc(CNC(=O)c2cccnn2)sc1-c1csc(-c2cc(F)c(O)c(F)c2F)n1 [Example 188] | 140 nM | 84 nM | – |
| Cc1nc(CNC(=O)C(C)(C)C)sc1-c1csc(-c2cc(F)c(O)c(F)c2)n1 [Example 196] | 4900 nM | 1600 nM | – |
| Cc1nc(COc2cccnn2)sc1-c1csc(-c2cc(F)c3[nH]nnc3c2)n1 [compound 7] | 55 nM | – | 55 nM |
| Cc1nc(COc2ncccn2)sc1-c1nc(-c2cc(F)c(O)c(C#N)c2)cs1 [Example 72] | – | 510 nM | – |
| Cc1nc(COCCN(C)C)sc1-c1cccc(-c2cc(F)c3nn[nH]c3c2F)n1 [Example 221] | – | 170 nM | – |
| COCc1nc(C)c(-c2cccc(-c3cc(F)c4nn[nH]c4c3F)n2)s1 [Example 68] | – | 200 nM | – |
| Cc1nc(COCC(C)(C)O)sc1-c1nc(-c2cc(F)c3nn[nH]c3c2)cs1 [Example 226] | – | 82 nM | – |
| Cc1nc(COc2ccccn2)sc1-c1cccc(-c2cc(F)c(O)c(F)c2)n1 [Example 199] | – | 6500 nM | – |
| Cc1nc(CNC(=O)C2CCN(C)CC2)sc1-c1csc(-c2cc(F)c3[nH]nnc3c2)n1 [Example 182] | – | 1900 nM | – |
| Cc1nc(COC(=O)N(C)CCN(C)C)sc1-c1cccc(-c2cc(F)c(O)c(F)c2F)n1 [Example 36] | – | 1300 nM | – |
| Cc1nc(CN2CCCC2=O)sc1-c1cccc(-c2cc(F)c3nn[nH]c3c2F)n1 [Example 26] | – | 110 nM | – |
| Cc1nc(COCC(C)O)sc1-c1cccc(-c2cc(F)c3nn[nH]c3c2F)n1 (stereo not drawn) [Example 237] | – | 22 nM | – |
| Cc1nc(CNC(=O)C2CCN(C)CC2)sc1-c1csc(-c2cc(F)c(O)c(F)c2F)n1 [Example 93] | – | 9000 nM | – |
| Cc1nc(COCC(=O)N(C)C)sc1-c1csc(-c2cc(F)c3[nH]nnc3c2F)n1 [Example 49] | – | 47 nM | – |
| Cc1nc(CNC(=O)N2CCN(C)CC2)sc1-c1csc(-c2cc(F)c(O)c(F)c2F)n1 [Example 108] | – | 14000 nM | – |
| Cc1nc(C)c(-c2cccc(-c3ccc(C(=O)NS(=O)(=O)c4ccccc4)cc3)n2)s1 [Example 209] | – | 3300 nM | – |
| Cc1nc(COC(=O)N2CCC(O)C2)sc1-c1cccc(-c2cc(F)c3nn[nH]c3c2F)n1 (stereo not drawn) [Example 85] | – | 21 nM | – |
| CC(=O)N(C)Cc1nc(C)c(-c2cccc(-c3cc(F)c4nn[nH]c4c3F)n2)s1 [Example 65] | – | 280 nM | – |

| Compound | EC50 [1, 3] | IC50 [2] | EC50 [1, 4] |
| --- | --- | --- | --- |
| Cc1ncsc1-c1cccc(-c2cc(F)c3[nH]nnc3c2F)n1 [Example 216] | – | 5400 nM | – |
| Cc1nc(COCC(C)(C)O)sc1-c1cccc(-c2cc(F)c3nn[nH]c3c2)n1 [Example 219] | – | 58 nM | – |
| Cc1nc(COc2ccccn2)sc1-c1ccnc(-c2cc(F)c3nn[nH]c3c2F)n1 [Example 41] | – | 75 nM | – |
| Cc1nc(COc2ncc(Cl)cn2)sc1-c1cccc(-c2cc(F)c3nn[nH]c3c2)n1 [Example 140] | 30 nM | – | – |
| Cc1nc(CNc2cccnn2)sc1-c1csc(-c2cc(F)c(O)c(F)c2F)n1 [Example 89] | – | 280 nM | – |
| Cc1nc(COC(C)(C)C)sc1-c1cccc(-c2cc(F)c3nn[nH]c3c2F)n1 [Example 235] | – | 130 nM | – |
| Cc1nc(COc2nccc(C(=O)O)n2)sc1-c1cccc(-c2cc(F)c3nn[nH]c3c2)n1 [Example 118] | – | 28 nM | – |
| Cc1nc(COCC(=O)N2CCC(O)C2)sc1-c1csc(-c2cc(F)c(O)c(F)c2F)n1 (stereo not drawn) [Example 124] | – | 6300 nM | – |
| Cc1nc(COC(=O)N2CCC(C)(O)C2)sc1-c1cccc(-c2cc(F)c3[nH]nnc3c2F)n1 (stereo not drawn) [Example 31] | – | 35 nM | – |
| Cc1nc(COc2ncccn2)sc1-c1cccc(-c2ccc([N+](=O)[O-])c(F)c2)n1 [Example 134] | – | > 25000 nM | – |
| Cc1nc(COc2ccccn2)sc1-c1cccc(-c2cc(O)c(C#N)c(F)c2)n1 [Example 120] | – | 1500 nM | – |
| Cc1nc(C(=O)NC2CCC(O)CC2)sc1-c1cccc(-c2cc(F)c3[nH]nnc3c2F)n1 (stereo not drawn) [Example 217] | – | 120 nM | – |
| Cc1nc(COCC(C)(C)C)sc1-c1cccc(-c2cc(F)c3nn[nH]c3c2F)n1 [Example 234] | – | 1300 nM | – |
| Cc1nc(COc2ccccn2)sc1-c1csc(-c2cc(F)c(O)c(F)c2)c1 [Example 198] | – | 5200 nM | – |
| COC(=O)NCc1nc(C)c(-c2csc(-c3cnc(O)c(F)c3)n2)s1 [Example 200] | – | 12000 nM | – |
| Cc1nc(COCC(=O)N(C)C)sc1-c1cccc(-c2cc(F)c3nn[nH]c3c2F)n1 [Example 64] | – | 43 nM | – |
| Cc1nc(C)c(COc2cc(F)c3nn[nH]c3c2F)s1 [Example 215] | – | > 25000 nM | – |
| Cc1nc(COCC(=O)N(C)C)sc1-c1nc(-c2cc(F)c3nn[nH]c3c2F)cs1 [Example 48] | – | 31 nM | – |
| Cc1nc(C(=O)N2CCC(O)C2)sc1-c1cccc(-c2cc(F)c3[nH]nnc3c2F)n1 (stereo not drawn) [Example 25] | – | 4400 nM | – |
| Cc1nc(COC(C)C(=O)N(C)C)sc1-c1csc(-c2cc(F)c3[nH]nnc3c2F)n1 (stereo not drawn) [Example 50] | – | 74 nM | – |
| Cc1nc(COc2ncccn2)sc1-c1cccc(-c2cc(O)c(C#N)c(F)c2)n1 [Example 74] | – | 290 nM | – |
| Cc1nc(CNC(=O)N(C)C)sc1-c1csc(-c2cc(F)c(O)c(F)c2F)n1 [Example 112] | – | 650 nM | – |
| Cc1nc(COC(=O)N2CC(O)C2)sc1-c1cccc(-c2cc(F)c3nn[nH]c3c2F)n1 [Example 59] | – | 20 nM | – |
| Cc1nc(COc2ncccn2)sc1-c1ccnc(-c2cc(F)c(O)c(F)c2F)c1 [Example 57] | – | 290 nM | – |
| Cc1nc(COCC(=O)N2CCN(C)CC2)sc1-c1csc(-c2cc(F)c(O)c(F)c2F)n1 [Example 123] | – | 1600 nM | – |
| Cc1nc(CNc2ncc(C(F)(F)F)cn2)sc1-c1csc(-c2cc(F)c(O)c(F)c2F)n1 [Example 84] | – | > 25000 nM | – |
| Cc1nc(COc2ncccn2)sc1-c1cccc(Nc2ccc3[nH]nnc3c2)n1 [Example 229] | – | > 25000 nM | – |
